Our source for the IC50 values is ChEMBL document CHEMBL1132825, “Aminoanthraquinones as novel ligands at the polyamine binding site on the N-methyl-D-aspartate receptor complex” (Bioorg Med Chem Lett, 2000).

Assay [1] deals with Glutamate NMDA receptor. The experiment in a line: Displacement of [3H]MK-801 from N-methyl-D-aspartate glutamate receptor. It is filed as protein-complex assay, Rattus norvegicus.
For assay [2], the target named is Glutamate NMDA receptor. The experiment in a line: Displacement of [3H]-SPD from N-methyl-D-aspartate glutamate receptor. Type of assay: protein-complex assay, Rattus norvegicus.

As to `Nc1cccc2c1C(=O)c1c(N)ccc(N)c1C2=O`, the 50% inhibitory concentration (IC50) at Glutamate NMDA receptor [1] amounted to 232 µM; on Glutamate NMDA receptor [2], 184 µM.

Consider `Nc1ccc2c(c1)C(=O)c1ccccc1C2=O`, for which the IC50 on Glutamate NMDA receptor [1] amounted to 119 µM; on Glutamate NMDA receptor [2], 116 µM.

For the molecule `Nc1ccc(N)c2c1C(=O)c1ccccc1C2=O`, the IC50 was determined as 567 µM at Glutamate NMDA receptor [1] and 412 µM at Glutamate NMDA receptor [2].

For the molecule `Nc1ccc(N)c2c1C(=O)c1c(N)ccc(N)c1C2=O`, the 50% inhibitory concentration (IC50) at Glutamate NMDA receptor [1] and at Glutamate NMDA receptor [2] was over 1000 µM in each case.

As for `Nc1ccc(O)c2c1C(=O)c1ccccc1C2=O`, the concentration for half-maximal inhibition (IC50) on Glutamate NMDA receptor [1] amounted to 158 µM; on Glutamate NMDA receptor [2], 179 µM.

As to `Nc1cccc2c1C(=O)c1ccccc1C2=O`, the half-maximal inhibitory concentration (IC50) amounted to 140 µM on Glutamate NMDA receptor [1] and 218 µM at Glutamate NMDA receptor [2].

For the molecule `Nc1ccc(O)c2c1C(=O)c1c(N)ccc(O)c1C2=O`, the concentration for half-maximal inhibition (IC50) on Glutamate NMDA receptor [1] and at Glutamate NMDA receptor [2] was over 1000 µM in each case.

With `Nc1ccc2c(c1N)C(=O)c1ccccc1C2=O`, the IC50 on Glutamate NMDA receptor [1] turned out to be 414 µM; at Glutamate NMDA receptor [2], 602 µM.

For the molecule `Nc1cccc2c1C(=O)c1cccc(N)c1C2=O`, the concentration for half-maximal inhibition (IC50) was 323 µM at Glutamate NMDA receptor [1] and 338 µM at Glutamate NMDA receptor [2].

For the molecule `Nc1ccc2c(c1)C(=O)c1ccc(N)cc1C2=O`, the half-inhibitory concentration (IC50) at Glutamate NMDA receptor [1] and at Glutamate NMDA receptor [2] was over 1000 µM throughout.

On to `O=C1c2ccccc2C(=O)c2ccccc21` [ANTHRAQUINONE], for which the IC50 on Glutamate NMDA receptor [1] and on Glutamate NMDA receptor [2] was over 1000 µM in each case.
